The test system of the data set is alanine aminotransferase (ALAT). Description: ALAT elevation during longer-term ximelagatran treatment in clinical trials. It counts as in vivo, human. The source says: Phase III clinical trials have been performed using fixed doses of melagatran and ximelagatran for the prevention of VTE in hip or knee replacement surgery. In addition, clinical trials have been performed using ximelagatran for the treatment and long-term secondary prevention of VTE, and for the prevention of stroke in patients with non-valvular atrial fibrillation. Ximelagatran has also been tested for secondary thrombosis prophylaxis post-myocardial infarction/acute coronary syndrome (ACS).
Alanine aminotransferase (ALAT) is an enzyme mostly expressed in the liver (EC 2.6.1.2). It is also called serum glutamate pyruvate transaminase (SGPT) or alanine transaminase (ALT). This enzyme is released into the plasma by liver cell death, which is a normal event. However, when liver cell death increases, ALAT levels rise above the normal range. The spill-over of this enzyme into blood is routinely measured as a marker of abnormal liver-cell damage. For example, alcoholic or viral hepatitis will increase ALAT levels, as will severe congestive heart failure. An elevated ALAT in the presence of normal levels of plasma alkaline phosphatase helps distinguish liver disease caused by liver-cell damage from diseases caused by problems in biliary ducts.
Elevations of ALAT are normally measured in multiples of the upper limit of normal (ULN), with a reference range of 15-45 U/L in most laboratories. In 1987, in a study of 19,877 healthy Air Force recruits, only 99 (0.5%) had confirmed ALAT elevations (as reviewed in Green & Flamm (2002) Gastroenterology 123:1367-1384).
The increase in ALAT values with ximelagatran usually occurred within the first 6 months of treatment and were mainly asymptomatic. […] Subject to the future regulatory approval of ximelagatran, regular liver function testing (LFT) using an appropriate algorithm may be required if ximelagatran is used for treatment periods exceeding a month. Studies are currently ongoing to try and establish the mechanism of the ALAT elevations, and their hepatic and overall clinical significance.

The values that follow come from patent US20090036424A1, “ASSOCIATION BETWEEN HLA-DRBI*07 ALLELE AND SUSCEPTIBILY TO INCREASED LEVELS OF ALAT FOLLOWING XIMELAGATRAN ADMINISTRATION” (AstraZeneca AB, priority 2005, published 2009).

A value given as a limit tells only on which side of the number the result lay.

With `CCOC(=O)CN[C@@H](C(=O)N1CC[C@H]1C(=O)NCc1ccc(/C(N)=N\O)cc1)C1CCCCC1` [ximelagatran, EtOOC—CH2—(R)Cgl-Aze-Pab-OH], under “longer-term treatment (>35 days), 1.2% in the comparator groups”, the “patients exhibiting levels of alanine aminotransferase (ALAT) 3-fold or more above the upper limit of normal (≧3×ULN)” value is on record as 7.9%. Further, under “regardless of whether treatment was continued or discontinued”, the “reversibility of ALAT increases” value is recorded as “reversible in most patients”. The “time of occurrence of the increase in ALAT values” (usually, from start of treatment, mainly asymptomatic) is given as at most 6 months.
